# From patent US20240309014A1, “MACROCYCLIC COMPOUNDS AND USES THEREOF” (President and Fellows of Harvard College, priority 2017, published 2024)
# Key:
# [1] = tested on: microtubule dynamics in U2OS-EB3-AG osteosarcoma cell line; experiment: Cell-based microtubule dynamics assay; settings: 0.5 nM, around 60 minutes after addition
# Procedure: A cell-based microtubule (MT) dynamics assay was conducted with the U2OS-EB3-AG osteosarcoma cell line, in which the fusion protein of EB3 (a microtubule plus end binding protein) and Azami-Green (EB3-AG) was stably expressed. U2OS-EB3-AG cells were culture in RPMI-1640 medium containing 10% FBS, and penicillin-streptomycin, at 37° C. in a humidified 5% C02 atmosphere. The MT dynamics in the live cells can be visualized as the movement of the comet-like structure of EB3-AG. U2OS-EB3-AG cells plated on glass-base culture plates (EZVIEW plate, AGC Techno Glass, Japan) were treated with Compound (1) at the indicated concentration and the microtubule dynamics were monitored by time-lapse imaging using fluorescent microscope with 60-fold magnification oil- immersed objective lens (BZ-X710, KEYENCE, Japan). Higher magnification views of the boxed areas were shown in inlets. When treated with Compound (1) at 0.5 nM (IC50 value for antiproliferative activity in U20S-EB3-AG cells), the comet-like structures became hard to observe at around 60 minutes after the addition of the compound.
# [2] = tested on: KPL-4 subcutaneous xenograft; experiment: KPL-4 xenograft model as monotherapy (FIG. 12); format: in vivo, nude mice
# Procedure: A human HER-2 positive breast cancer cell line KPL-4, which had been cultured in a DMEM containing 10% FBS, and penicillin-streptomycin, was adjusted to a concentration of 1×10^8 cells/mL with Hanks' Balanced Salt Solution to prepare a cell suspension. The cell suspension was inoculated in a volume of 100 μL into a subcutaneous part of a right flank of nude mice, 8 weeks of ages (CAnN.Cg-Foxnlnu/CrlCrlj, female, Charles River Laboratories Japan Inc.). Eleven days after cell inoculation (Day 1), the shortest diameter and the longest diameter of a tumor in each mouse were measured by using an electronic digital caliper (Digimatic™ caliper, Mitutoyo Corporation), so as to calculate the volume of the tumor in accordance with the following calculation formulae: […]
# (§1) On the basis of the volumes of tumors obtained on Day 1, the mice were grouped such that averages of the tumor volumes were substantially equal among the groups. The experiment was conducted on groups each consisting of six mice. The test compound was dissolved in DMSO and a solution was stored in the freezer before use. Immediately before the administration, the stock solution was diluted with saline. The test compound in saline was intravenously once-weekly administered at 20 μg/kg, 60 μg/kg, or 180 μg/kg for 2 weeks (on Day 1 and Day 8).
# [3] = tested on: human endometrial cancer cell line HEC-108 xenograft; experiment: HEC-108 endometrial cancer xenograft as monotherapy (FIG. 18); format: in vivo, athymic mice; settings: 180 μg/kg i.v. Day 1 and Day 8
# Procedure: A human endometrial cancer cell line HEC-108, which had been cultured in an E-MEM containing 15% FBS and antibiotics were adjusted to a concentration of 7.14×10^7 cells/mL with medium to prepare a cell suspension. The cell suspension was inoculated in a volume of 150 μL into a subcutaneous part of a right flank of athymic mice (CAnN.Cg-Foxnlnu/CrlCrlj, female, 6 weeks old, Charles River Japan Inc.). Thirteen days after cell inoculation (Day 1), the length and the width of a tumor in each mouse were measured by using an electronic digital caliper (Mitutoyo Corporation), so as to calculate the volume of the tumor in accordance with the following calculation formula: […]
# On the basis of TV, the mice were randomly grouped (Day 1). Each group was consisted in six mice. Compound (1) was dissolved in DMSO and a solution was stored in the freezer before use. Compound (1) (180 μg/kg) was diluted in saline and intravenously injected on Day 1 and Day 8.
# [4] = tested on: human endometrial cancer cell line AN3CA xenograft; experiment: AN3CA endometrial cancer xenograft as monotherapy (FIG. 18); format: in vivo, nude mice; settings: 180 μg/kg i.v. Day 1 and Day 8
# Procedure: A human endometrial cancer cell line AN3CA, which had been cultured in an E-MEM containing 10% FBS, and penicillin-streptomycin, was adjusted to a concentration of 1.4×10^8 cells/mL with Hanks' Balanced Salt Solution to prepare a cell suspension, and the suspension was mixed with Geltrex® (Thermo Fisher Scientific Inc., #A1413202) in a ratio of 1:1 to prepare a cell suspension in a concentration of 7×10^7 cells/mL. The cell suspension was inoculated in a volume of 100 μL into a subcutaneous part of a right flank of nude mice, 6 weeks of ages (CAnN.Cg-Foxnlnu/CrlCrlj, female, Charles River Laboratories Japan Inc.). Twelve days after cell inoculation (Day 1), the shortest diameter and the longest diameter of a tumor in each mouse were measured by using an electronic digital caliper (Digimatic™ caliper, Mitutoyo Corporation), so as to calculate the volume of the tumor in accordance with the following calculation formulae: […]
# as §1, with “five” for “six”, “The test compound in saline was intravenously once-weekly administered at 20 μg/kg, 60 μg/kg, or 180 μg/kg for 2 weeks (on Day 1 and Day 8).” left out
# [5] = tested on: human duodenal cell line HuTu 80 xenograft; experiment: HuTu 80 xenograft model as monotherapy (FIG. 23); format: in vivo, nude mice
# Procedure: A human duodenal cell line HuTu 80, which had been cultured in a EMEM containing 10% FBS, and penicillin-streptomycin, was adjusted to a concentration of 3×10^7 cells/mL in PBS to prepare a cell suspension. The cell suspension was inoculated in a volume of 100 μL into a subcutaneous part of a right flank of nude mice, 7 weeks of ages (CAnN.Cg-Foxnlnu/CrlCrlj, female, Charles River Laboratories Japan Inc.). Seven days after cell inoculation (Day 1), the shortest diameter and the longest diameter of a tumor in each mouse were measured by using an electronic digital caliper (Digimatic™ caliper, Mitutoyo Corporation), so as to calculate the volume of the tumor in accordance with the following calculation formulae: […]
# as §1, with “mice. Compound (1)” for “mice. The test compound”, “at 45, 90,” for “at 20 μg/kg, 60 μg/kg,”
# [6] = tested on: B-16 melanoma cells; settings: among natural Halichondrin compounds; cited from earlier work
Compound,effect on microtubule dynamics (EB3-AG comet-like structures) [1],antitumor effect ([2]; 60 μg/kg i.v. Day 1 and Day 8),antitumor effect ([2]; 180 μg/kg i.v. Day 1 and Day 8),xenograft tumors on Day 15 ([2]; 180 μg/kg i.v. Day 1 and Day 8),antitumor activity [3],antitumor activity [4],Tumor Regression (%) ([5]; 0.18 mg/kg i.v. Day 1 and Day 8),antitumor effect ([5]; 180 μg/kg i.v. Day 1 and Day 8),antitumor effect ([5]; 45 and 90 μg/kg i.v. Day 1 and Day 8),anti-tumor activities against B-16 melanoma cells in vitro [6]
C=C1C[C@@H]2CC[C@@]34C[C@H]5O[C@H]6[C@@H](O3)[C@H]3O[C@H](CC[C@@H]3O[C@H]6C5O4)CC(=O)O[C@@H]3[C@@H](C)[C@@H]4O[C@@H]5C[C@]6(C[C@@H]7O[C@]8(C[C@H](C)[C@@H]9O[C@H](CN)[C@H](O)C[C@@H]9O8)C[C@H](C)[C@@H]7O6)O[C@@H]5C[C@@H]4O[C@H]3C[C@H]3O[C@@H](CC[C@@H]1O2)C[C@@H](C)C3=C (stereo in doubt) [Compound (1)],suppress the MT dynamics,tumor regression,tumor regression,completely eradicated the xenograft tumors in all mice,tumor growth delay,tumor regression,99,tumor regression,tumor growth delay,
"C=C1C[C@@H]2CC[C@@]34C[C@H]5O[C@H]6[C@@H](O3)[C@H]3O[C@H](CC[C@@H]3O[C@H]6[C@H]5O4)CC(=O)O[C@@H]3[C@@H](C)[C@@H]4O[C@@H]5C[C@]6(C[C@@H]7O[C@]8(C[C@H](C)[C@@H]9O[C@H]([C@@H](O)C[C@@H](O)CO)C[C@@H]9O8)C[C@H](C)[C@@H]7O6)O[C@@H]5C[C@@H]4O[C@H]3C[C@H]3O[C@@H](CC[C@@H]1O2)C[C@@H](C)C3=C [Halichondrin B, reference compound]",,,,,,,,,,strongest anti-tumor activities
